Experimental data from patent publication US5045566A, “Novel imidate insecticides” (ICI Americas Inc., priority 1989, dated 1991).

Tests used:
Type in all cases: in vivo
[1] = tested on: Black Bean Aphid [Aphis fabae (Scop.)]; experiment: Black bean aphid spray test on nasturtium (BBA), 48 hours; details: percent of test compound in sprayed solution
Summary of the method: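 LC50, given as percent test compound in the sprayed liquid, was calculated from dosage-mortality curves using concentrations from 0.05% downward. Sprays in 50:50 acetone-water went to runoff on ~5 cm nasturtiums carrying 25-50 aphids of mixed ages, one day after infestation. Deaths were counted 48 h later under greenhouse conditions.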

[2] = tested on: Cabbage Looper [Trichoplusia ni (Hubner)]; experiment: Cabbage looper leaf dip (CL), 3-5 days; details: percent in solution, second-instar larvae
Summary of the method: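 LC50 values, given as percent test compound in solution, were calculated from dosage-mortality curves. Squash cotyledons were immersed 2-3 s in acetone-water (50-50) dilutions starting at 0.1%, dried on a screen, then infested with five second-instar larvae. Mortality was read 3-5 days on.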

[3] = tested on: Rice water weevil [Lissorhoptrus oryzophilus (Kuschel)]; experiment: Rice water weevil topical (RWW), 48 hours; details: μg of test compound per weevil, female adults
Protocol: The compounds in Tables 1 and 2 above were tested for insecticidal activity using the following testing procedures. LC50 values, based on the results of these tests and calculated according to dosage-mortality curves, are expressed in Table 3.
Rice water weevil [Lissorhoptrus oryzophilus (Kuschel)]:
Test compounds were diluted in acetone. Droplets (1 ul) of test solutions were applied to the ventral abdomens of ten female adult weevils. The treated weevils were placed in containers with wet cotton balls and rice foliage. The containers were covered and kept at a temperature of about 25° C. Mortality was recorded after 48 hours. Test concentrations ranged from […] down to that at which 50% mortality occurred. The LC50 values are expressed below in Table 3 under the heading "RWW" in terms of μg of test compound per weevil.

[4] = tested on: Tobacco Budworm [Heliothis virescens (Fabricius)] eggs; experiment: Tobacco budworm eggs (TBW-E); details: percent in solution; 2-day old eggs
Summary of the method: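 2-day eggs on paper towel, acetone dip, 0.1% and below; petri dish with larval diet, 78° F. Mortality read after control hatch and larval feeding. LC50 = % compound in solution, from dose-mortality curve.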

[5] = tested on: Aster Leafhopper [Macrosteles fascifrens (Stal)]; experiment: Aster leafhopper on dipped oat seedlings (LH), 48 hours; details: percent in solution, adults/nymphs
Summary of the method: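 LC50 values, given as percent of test compound in the dip solution, were derived from dosage-mortality curves over concentrations from 0.05% downward. Mortality was counted 48 hours after ten leafhopper adults/nymphs were enclosed on treated seedlings. The seedlings were oats, about 10 cm tall, briefly dipped in 50-50 acetone-water.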

[6] = tested on: Maize weevil [Sitophilus zeamais (Motschulsky)]; experiment: Maize weevil on dipped corn seeds (MW), 48 hours; details: percent in solution, adult weevils
Summary of the method: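 LC50, given as percent of compound in dipping solution, comes from dosage-mortality curves over concentrations descending from 0.01%. Four corn seeds soaked 2-3 s in 50:50 acetone:water solution were dried and held with 10 adult weevils, about 25° C, mortality read after 48 h.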

[7] = tested on: Housefly [Musca domestica]; experiment: Housefly contact mortality in dishes (HF), 48 hours; details: μg of test compound per 25 female flies
Summary of the method: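 LC50 (μg compound per 25 female flies) derives from dosage-mortality curves of 48 h kill. Flies, females 1-2 days old, were held 25 per cage over a dish coated with dried acetone deposit, starting at 100 μg per cage and descending.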

[8] = tested on: Tobacco Budworm [Heliothis virescens (Fabricius)] larvae; experiment: Tobacco budworm larvae, contact (TBW-C), 5 days; details: percent in solution, second-instar larvae
Summary of the method: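 Cotton cotyledons dipped 2–3 s in compound in 50-50 acetone-water, dried, then infested with 5 second-instar larvae and held 5 days at high humidity. Mortality scored; LC50 from dosage-mortality curves, expressed as percent compound in solution, concentrations from 0.1% downward.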

Row | Structure (SMILES) | LC50 BBA [1] [%] | LC50 CL [2] [%] | LC50 RWW [3] [µg] | LC50 TBW E (eggs) [4] [%] | LC50 LH [5] [%] | LC50 MW [6] [%] | LC50 HF [7] [µg] | LC50 TBW C (contact) [8] [%]
1 | CC(C)C(=Nc1ccc(C(F)(F)F)cc1)OCc1cccc(Oc2ccccc2)c1 [Compound 68] | 0.0003 | 0.006 | 0.15 | 0.009 | 0.0001 | > 0.01 | 37 | –
2 | CCC(=Nc1ccc(F)c(Cl)c1)OCc1cccc(Oc2ccccc2)c1 [Compound 85] | 0.0017 | 0.004 | > 2.5 | > 0.1 | 0.003 | > 0.01 | 7 | –
3 | CC(C)C(=Nc1ccc(F)c(Cl)c1)OCc1cccc(Oc2cccc(F)c2)c1 [Compound 125] | 0.05 | 0.0007 | > 2.5 | 0.025 | > 0.05 | > 0.01 | 12 | –
4 | CC(C)C(=Nc1ccc(F)c(Cl)c1)OCc1cccc(Oc2ccc(F)cc2F)c1 [Compound 191] | 0.001 | 0.00023 | > 2.5 | 0.04 | > 0.05 | 0.004 | 29 | –
5 | CC(C)C(=Nc1c(F)c(F)c(F)c(F)c1F)OCc1cccc(Oc2ccc(F)cc2)c1 [Compound 198] | – | 0.0005 | > 2.5 | > 0.1 | 0.05 | 0.003 | 52 | –
6 | CC(C)C(=Nc1ccc(Cl)c(Cl)c1)OCc1ccc(F)c(Oc2ccc(F)cc2)c1 [Compound 289] | 0.0003 | 0.00007 | 0.082 | 0.006 | 0.0003 | > 0.01 | 10 | –
7 | CC(C)C(=Nc1ccc(F)c(F)c1)OCc1ccc(F)c(Oc2ccc(Cl)cc2)c1 [Compound 295] | 0.0003 | 0.00004 | > 2.5 | 0.01 | 0.0001 | 0.0053 | 7.8 | 0.0005
8 | CC(C)C(=Nc1ccc(Cl)c(Cl)c1)OCc1ccc(F)c(Oc2ccc(Cl)cc2)c1 [Compound 296] | 0.0003 | 0.00025 | 0.14 | 0.025 | 0.0003 | – | 38 | 0.00045
9 | CC(C)C(=Nc1ccc(F)c(Br)c1)OCc1ccc(F)c(Oc2ccc(Cl)cc2)c1 [Compound 298] | – | 0.0001 | > 2.5 | 0.015 | 0.0001 | 0.008 | 13 | 0.0008
10 | CC(C)C(=Nc1ccc(F)c(C(F)(F)F)c1)OCc1ccc(F)c(Oc2ccccc2)c1 [Compound 300] | 0.0003 | 0.0003 | 0.075 | 0.024 | 0.00002 | 0.01 | 14 | 0.001
11 | CC(C)C(=Nc1ccc(F)c(Cl)c1F)OCc1ccc(F)c(Oc2ccc(F)cc2)c1 [Compound 330] | 0.0001 | 0.00012 | 0.06 | 0.037 | < 0.05 | 0.001 | 5 | 0.00035
12 | CC(C)C(=Nc1ccc(OC(F)(F)F)cc1)OCc1ccc(F)c(Oc2ccccc2)c1 [Compound 338] | 0.0003 | 0.000065 | 0.044 | 0.01 | – | 0.0053 | 26 | 0.00037
13 | CC(C)C(=Nc1ccc(C(F)(F)F)c(Br)c1)OCc1ccc(F)c(Oc2ccc(Cl)cc2)c1 [Compound 377] | 0.001 | 0.00062 | > 2.5 | > 0.1 | – | > 0.01 | < 100 | –
14 | CC(C)C(=Nc1ccc(Br)cc1)OCc1ccc(F)c(Oc2ccc(Cl)cc2)c1 [Compound 378] | 0.0008 | 0.00034 | > 2.5 | 0.02 | – | > 0.01 | < 100 | –
15 | CC(C)C(=Nc1ccc(Br)c(Cl)c1)OCc1cccc(Oc2ccc(Cl)cc2)c1 [Compound 380] | 0.004 | > 0.1 | > 2.5 | > 0.1 | – | > 0.01 | > 100 | –
16 | CC(C)C(=Nc1ccc(Br)c(Cl)c1)OCc1ccc(F)c(Oc2ccc(Cl)cc2)c1 [Compound 381] | 0.002 | 0.00092 | > 2.5 | 0.018 | – | > 0.01 | < 100 | –
17 | CC(C)C(=Nc1ccc(Br)c(Cl)c1)OCc1ccc(F)c(Oc2ccc(F)cc2)c1 [Compound 382] | 0.0003 | 0.00029 | > 2.5 | 0.027 | – | > 0.01 | < 100 | –
18 | CC(C)C(=Nc1cccc(Br)c1)OCc1ccc(F)c(Oc2ccccc2)c1 [Compound 387] | 0.0006 | 0.0012 | > 2.5 | 0.05 | – | > 0.01 | < 100 | –
19 | CC(C)C(=Nc1ccc(Cl)cc1)OCc1ccc(F)c(Oc2ccc(Cl)cc2)c1 [Compound 391] | 0.0006 | 0.00029 | > 2.5 | 0.035 | – | > 0.01 | < 100 | –
20 | C=C(C)C(=Nc1ccc(C(F)(F)F)cc1)OCc1ccc(F)c(Oc2ccccc2)c1 [Compound 431] | 0.0003 | 0.00017 | 0.084 | 0.025 | – | 0.0037 | 9.8 | –
21 | CC(C)C(=Nc1ccc(C(F)(F)F)c(Br)c1)OCc1ccc(F)c(Oc2ccc(Cl)cc2)c1 [Compound 433] | 0.0003 | 0.00017 | 0.078 | 0.02 | – | 0.005 | < 100 | –
22 | CC(C)C(=Nc1ccc(F)c(Cl)c1F)OCc1ccc(F)c(Oc2ccccc2)c1 [Compound 451] | 0.001 | 0.0001 | 0.065 | > 0.1 | 0.0002 | 0.0051 | 3.6 | 0.00025
23 | CC(C)C(=Nc1ccc(Cl)c(OCC(F)(F)F)c1)OCc1ccc(F)c(Oc2ccc(Cl)cc2)c1 [Compound 452] | 0.0003 | 0.0017 | 0.1 | < 0.1 | – | > 0.01 | > 100 | –
